Data from patent US6875768B1, “Phthalamide derivatives, intermediates in the production thereof, and agricultural/horticultural insecticides and method for using the same” (Nihon Nohyako Co., Ltd., priority 1999, dated 2005).

What was measured:
[1] = test system: diamond back moth (Plutella xylostella); assay type: in vivo; details: 1,000 ppm; Chinese cabbage seedling with eggs immersed about 30 seconds; counted six days after the immersion; 25° C.
Description: Insecticidal effect on diamond back moth (Plutella xylostella)
Adult diamond back moths were released and allowed to oviposit on a Chinese cabbage seedling. […] Six days after the immersion, the hatched insects were counted. […] [formula] Criterion • A - - - Mortality 100% • B - - - Mortality 99-90% • C - - - Mortality 89-80% • D - - - Mortality 79-50%

[2] = test system: Common cutworm (Spodoptera litura); assay type: in vivo; details: 500 ppm; cabbage leaf immersed about 30 seconds; second-instar larvae; eight days after the inoculation; 25° C.
Description: Insecticidal Effect on Common cutworm (Spodoptera litura)

| SMILES | insecticidal effect (activity ranking by mortality) [1] | insecticidal effect (activity ranking by mortality) [2] |
| --- | --- | --- |
| Cc1cc(C(C)(C)C)sc1NC(=O)c1cccc(I)c1C(=O)NC(C)C [Q1-12] | B or higher | – |
| Cc1nc(OC(C(F)(F)F)C(F)(F)F)ccc1NC(=O)c1ccc(Cl)c(Cl)c1C(=O)NC(C)C[S+](C)[O-] (stereo not drawn) [Q27-335] | B or higher | B or higher |
| Cc1nc(OC(F)(F)C(F)C(F)(F)F)ccc1NC(=O)c1cccc(I)c1C(=O)NC(C)C (stereo not drawn) [Q27-391] | B or higher | – |
| CSCC(C)(C)NC(=O)c1c(I)cccc1C(=O)Nc1ccc(C(F)(C(F)(F)F)C(F)(F)F)nc1 [Q27-233] | B or higher | B or higher |
| Cc1csc(NC(=O)c2cccc(Cl)c2C(=O)NC(C)C)n1 [Q8-2] | B or higher | – |
| C[S+]([O-])CC(C)(C)NC(=O)c1c(I)cccc1C(=O)Nc1ccc(C(F)(C(F)(F)F)C(F)(F)F)nc1Cl (stereo not drawn) [Q27-235] | B or higher | B or higher |
| CSCC(C)(C)NC(=O)c1c(I)cccc1C(=O)Nc1ccc(OC(F)(F)C(F)F)nc1C [Q27-384] | B or higher | B or higher |
| CC(C)(CS(C)(=O)=O)NC(=O)c1c(I)cccc1C(=O)Nc1ccc(C(F)(C(F)(F)F)C(F)(F)F)nc1Cl [Q27-236] | B or higher | B or higher |
| CC(C)NC(=O)c1c(Cl)cccc1C(=O)Nc1nc(-c2ccccc2)c(Cl)s1 [Q8-5] | B or higher | – |
| CSCC(C)NC(=O)c1c(I)cccc1C(=O)Nc1ccc(C(F)(C(F)(F)F)C(F)(F)F)nc1Cl (stereo not drawn) [Q27-232] | B or higher | B or higher |
| CC(C)NC(=O)c1c(I)cccc1C(=O)Nc1ccc(C(F)(C(F)(F)F)C(F)(F)F)nc1[S+](C)[O-] (stereo not drawn) [Q27-247] | B or higher | B or higher |
| CC(C)NC(=O)c1c(I)cccc1C(=O)Nc1ccc(C(F)(C(F)(F)F)C(F)(F)F)nc1Cl [Q27-230] | B or higher | B or higher |
| CSCC(C)NC(=O)c1c(C(=O)Nc2ccc(OC(C(F)(F)F)C(F)(F)F)nc2C)ccc(Cl)c1Cl (stereo not drawn) [Q27-334] | B or higher | B or higher |
| CSCC(C)(C)NC(=O)c1c(C(=O)Nc2ccc(OC(C(F)(F)F)C(F)(F)F)nc2C)cccc1C(F)(F)F [Q27-359] | B or higher | B or higher |
| Cc1nc(OC(C(F)(F)F)C(F)(F)F)ccc1NC(=O)c1cccc(C(F)(F)F)c1C(=O)NC(C)C [Q27-354] | B or higher | B or higher |
| CC(C)(CS(C)(=O)=O)NC(=O)c1c(I)cccc1C(=O)Nc1ccc(OC(C(F)(F)F)C(F)(F)F)nc1Cl [Q27-267] | B or higher | B or higher |
| CCN(CC)C(=O)c1c(I)cccc1C(=O)Nc1ccc(C(F)(C(F)(F)F)C(F)(F)F)nc1Cl [Q27-231] | B or higher | B or higher |
| Cc1cc(C(F)(C(F)(F)F)C(F)(F)F)cnc1NC(=O)c1cccc(I)c1C(=O)NC(C)C [Q26-11] | B or higher | B or higher |
| CSc1nc(C(F)(C(F)(F)F)C(F)(F)F)ccc1NC(=O)c1cccc(I)c1C(=O)NC(C)C [Q27-246] | B or higher | B or higher |
| COc1nc(C(F)(C(F)(F)F)C(F)(F)F)ccc1NC(=O)c1cccc(I)c1C(=O)NC(C)CSC (stereo not drawn) [Q27-241] | B or higher | B or higher |
| Cc1nc(OC(C(F)(F)F)C(F)(F)F)ccc1NC(=O)c1ccc(Cl)c(Cl)c1C(=O)NC(C)C [Q27-332] | B or higher | B or higher |
| Cc1c(NC(=O)c2cccc(I)c2C(=O)NC(C)C)noc1C(F)(F)F [Q4-12] | B or higher | – |
| CSCC(C)(C)NC(=O)c1c(I)cccc1C(=O)Nc1ccc(OC(F)(F)C(F)C(F)(F)F)nc1C (stereo not drawn) [Q27-393] | B or higher | – |
| Cc1ncoc1NC(=O)c1cccc(I)c1C(=O)NC(C)C [Q10-7] | B or higher | – |
| Cc1nc(Oc2ccc(C(F)(F)F)cc2)ccc1NC(=O)c1cccc(I)c1C(=O)NC(C)C [Q27-466] | – | B or higher |
| CSCC(C)(C)NC(=O)c1c(C(=O)Nc2ccc(OC(C(F)(F)F)C(F)(F)F)nc2C)cccc1[N+](=O)[O-] [Q27-352] | B or higher | B or higher |
| Cc1nc(C(F)(C(F)(F)F)C(F)(F)F)ccc1NC(=O)c1cccc(I)c1C(=O)NC(C)(C)C[S+](C)[O-] (stereo not drawn) [Q27-153] | B or higher | B or higher |
| CC(C)NC(=O)c1c(Cl)cccc1C(=O)Nc1ccc(C(F)(C(F)(F)F)C(F)(F)F)nc1Cl [Q27-459] | – | B or higher |

| SMILES | insecticidal effect (activity ranking by mortality) [1] | insecticidal effect (activity ranking by mortality) [2] |
| --- | --- | --- |
| Cc1cc(NC(=O)c2cccc([N+](=O)[O-])c2C(=O)NC(C)C)n(C)n1 [Q6-6] | B or higher | – |
| CC(C)NC(=O)c1c(Cl)cccc1C(=O)Nc1nc(C(F)(F)F)cs1 [Q8-3] | B or higher | – |
| Cc1c(NC(=O)c2c(Cl)cccc2C(=O)NC(C)C)noc1-c1ccc(Cl)cc1 [Q4-8] | B or higher | – |
| Cc1nc(C(F)(C(F)(F)F)C(F)(F)F)ccc1NC(=O)c1cccc(I)c1C(=O)NC(C)(C)C[S+](C)[O-] (stereo not drawn) [Q27-244] | B or higher | – |
| CC(C)NC(=O)c1cccc(Cl)c1C(=O)Nc1nc(C(F)(F)F)cs1 [Q8-13] | B or higher | – |
| Cc1nc(OC(C(F)(F)F)C(F)(F)F)ccc1NC(=O)c1ccccc1C(=O)NC(C)(C)C[S+](C)[O-] (stereo not drawn) [Q27-289] | B or higher | B or higher |
| Cc1nc(OC(C(F)(F)F)C(F)(F)F)ccc1NC(=O)c1cccc([N+](=O)[O-])c1C(=O)NC(C)C [Q27-347] | B or higher | B or higher |
| CCCNC(=O)c1c(Cl)cccc1C(=O)Nc1nc(C)c(Oc2ccccc2)n1C [Q8-11] | B or higher | – |
| Cc1nc(OC(C(F)(F)F)C(F)(F)F)ccc1NC(=O)c1cccc(Cl)c1C(=O)NC(C)C [Q27-297] | B or higher | B or higher |
| Cc1c(NC(=O)c2c(I)cccc2C(=O)NC(C)C)noc1C(F)(F)F [Q4-45] | B or higher | – |
| CC(C)NC(=O)c1c(I)cccc1C(=O)Nc1ccc(OC(F)(F)C(F)F)nc1Cl [Q27-387] | B or higher | B or higher |
| COc1nc(NC(=O)c2cccc(I)c2C(=O)NC(C)C)nc(OC)c1C(F)(C(F)(F)F)C(F)(F)F [Q33-10] | B or higher | – |
| CC(C)NC(=O)c1c(I)cccc1C(=O)Nn1cnnc1 [Q15-1] | B or higher | – |
| Cc1cc(C(F)(C(F)(F)F)C(F)(F)F)ncc1NC(=O)c1cccc(I)c1C(=O)NC(C)(C)C[S+](C)[O-] (stereo not drawn) [Q27-152] | – | B or higher |
| CC(C)NC(=O)c1cccc(Cl)c1C(=O)Nc1nc(-c2ccccc2)c(Cl)s1 [Q8-15] | B or higher | – |
| Cc1sc(I)nc1NC(=O)c1cccc(I)c1C(=O)NC(C)C [Q9-15] | B or higher | – |
| CSCC(C)(C)NC(=O)c1c(I)cccc1C(=O)Nc1ccc(OC(F)(F)C(F)C(F)(F)F)nc1C (stereo not drawn) [Q27-396] | B or higher | – |
| CCN(CC)C(=O)c1c(I)cccc1C(=O)Nc1nc(-c2ccc(Cl)cc2)cs1 [Q8-53] | B or higher | – |
| CC(C)NC(=O)c1c(Cl)cccc1C(=O)Nc1nccs1 [Q8-1] | B or higher | – |
| Cc1ccsc1NC(=O)c1c(I)cccc1C(=O)NC(C)C [Q1-42] | B or higher | – |
| Cc1cc(C(C)(C)C)sc1NC(=O)c1c(I)cccc1C(=O)NC(C)C [Q1-41] | B or higher | – |
| CC(C)NC(=O)c1cccc(Cl)c1C(=O)Nc1nc(-c2ccccc2)cs1 [Q8-14] | B or higher | – |
| CCN(CC)C(=O)c1c(I)cccc1C(=O)Nc1cnccn1 [Q34-30] | B or higher | – |
| COc1cc(OC)nc(NC(=O)c2ccccc2C(=O)NC(C)C)n1 [Q33-1] | B or higher | – |
| CC(C)NC(=O)c1c(I)cccc1C(=O)Nc1c(Cl)ncnc1Cl [Q32-11] | B or higher | – |
| Cc1c(C(F)(F)F)noc1NC(=O)c1cccc(I)c1C(=O)NC(C)C [Q6-8, N^1-(4-methyl-3-trifluoromethyl-isoxazol-5-yl)-N^2-isopropyl-3-iodophthalamide] | B or higher | – |
| CC(C)NC(=O)c1c(Cl)cccc1C(=O)Nc1cc(-c2ccc(Br)cc2)on1 [Q4-6] | B or higher | – |
